# Values of other authors, collected in publication PMC8395767, “Worsening of the Toxic Effects of (±)Cis-4,4′-DMAR Following Its Co-Administration with (±)Trans-4,4′-DMAR: Neuro-Behavioural, Physiological, Immunohistochemical and Metabolic Studies in Mice” (International Journal of Molecular Sciences, 2021).
# What was measured:
# [1] = system: dopamine (DAT) transporter; design: method as in PMID 30776375, PMID 25331619, PMID 29908239; details: in vitro; cited from earlier work
# [2] = molecular target: 5-HT2C; design: method as in PMID 29908239; details: read-out: Ki at 5-HT2C receptor; cited from earlier work
# [3] = system: noradrenaline (NET) transporter; design: method as in PMID 30776375, PMID 25331619, PMID 29908239; details: in vitro; cited from earlier work
# [4] = molecular target: 5-HT2A; design: method as in PMID 29908239; details: read-out: Ki at 5-HT2A receptor; cited from earlier work
# [5] = system: rat brain synaptosomes; design: method as in PMID 24841869; details: compared with d-amphetamine, aminorex and 4-MAR; cited from earlier work
# [6] = system: serotonin transporters; design: method as in PMID 30776375, PMID 25331619, PMID 29908239; details: in vitro; cited from earlier work
# [7] = system: DAT/SERT; design: method as in PMID 30776375; details: cited from earlier work
smiles,measurement,setting,value
"Cc1ccc(C2OC(N)=NC2C)cc1 (stereo not shown) [4,4′-DMAR, 4-Methyl-5-(4-methylphenyl)-4,5-dihydrooxazol-2-amine]",Inhibitory activity on dopamine transporter (DAT),[1],potent inhibitory activity
same,Ki,[2],~11 µM
same,Inhibitory activity on noradrenaline transporter (NET),[3],potent inhibitory activity
same,Ki,[4],~8.9 µM
same,Release of 5-HT from rat brain synaptosomes,[5],most potent releaser
same,Inhibitory activity on serotonin transporters,[6],potent inhibitory activity
same,DAT/SERT ratio,[7],0.4
